Patent US20100047284A1 (priority 2006, published 2010)
“Also recorded” adds a separate entry of the source.

Columns and labels:
[1] = system: radial artery rings; format: cell-based, Human
[2] = system: radial artery tissue; assay: spontaneous contractility of radial artery tissue; format: cell-based, Human; settings: radial artery tissue (FIG. 11A)
[3] = system: vascular smooth muscle; format: cell-based, Human
[4] = system: endothelial mediated relaxation
[5] = system: mammary artery samples; format: cell-based, Human

Molecule	effect on angiotensin II-induced contraction [1]	effect on spontaneous contraction [2]	optimal concentration most effective at reducing contractile activity [3]	concentration most effective at inhibiting adrenaline-mediated contraction [1] [µg/mL]	effect on dose response curves to adrenaline, angiotensin II or PGF2α [1]	effect on subsequent vasoconstrictor responses (in words) [1]	incubation time at which toxin is effective in inhibiting adrenaline-induced vasoconstriction [1] [min]	inhibition of contraction, depending on the vasoconstrictor [1]	endothelial mediated relaxation after incubation with toxin [4]	concentration most effective at inhibiting angiotensin II induced contraction [5] [µM]
CC(COc1ccccc1)N(CCCl)Cc1ccccc1 (stereo not shown) [phenoxybenzamine, Phenoxybenzamine, reference compound]	no inhibitory effect	no effect; also recorded: lack of effect								
cholera toxin			about 0.6 μM; also recorded: about 51 μg/ml	25	inhibited the contraction	inhibit the maximal contraction force produced and the sensitivity	30	15-50%	no impairment	0.57
pertussis toxin				50	inhibited the contraction	inhibit the maximal contraction force produced and the sensitivity	60	20-60%	no impairment	
